Laboratory results: patent publication US6777578B2, “Hydroxyphenstatin and the prodrugs thereof” (Arizona Board of Regents, priority 2000, dated 2004)
Converted amounts (≈) assume the structure as drawn. Like-named read-outs stand apart in the source and are kept apart here.

Assays:
[1] = system: tubulin; test: Tubulin polymerization assay; format: biochemical; details: read-out: Inhibition of Tubulin Polymerization (μM IC50 ± SD)
Method: (§1) The tubulin polymerization and colchicine binding assays were performed as described previously (See: […]), except that Beckman DU7400/7500 spectrophotometers equipped with “high performance” temperature controllers were used in the former assay. Unlike the manual control possible with the previously used Gilford spectrophotometers, the polymerization assays required use of programs provided by MDB analytical Associates, South Plainfield, N.J., since the Beckman instruments are microprocessor controlled. The Beckman instruments were unable to maintain 0° C., and the lower temperature in the assays fluctuated between 2 and 4° C. Temperature changes were, however, more rapid than in the Gilford instruments with the jump from the lower temperature to 30° C. taking about 20 sec. and the reverse jump about 100 sec.

[2] = system: tubulin; test: Colchicine binding assay; details: [3H]colchicine binding to tubulin
Method: as §1

[3] = system: KM20L2; test: Human cancer cell growth inhibition, colon KM20L2; format: cell-based
Method: (§2) The following measures are used to express drug activity giving the drug dose, which reduces cell growth to a specified percentage of growth:
(§3) ED50 (P388) and GI50 (HTCL) are the drug doses needed to reduce the percent growth to 50%. There is no mathematical difference between ED50 and GI50, which are both calculated using the same formula. The only difference is historical usage.
(§4) Each drug is tested at five (5) doses: 100-10-1-0.1-0.01 μg/ml. Percent Growths are calculated for each dose. The two (or three) doses with growth values above, below, (or near to) 50% growth are used to calculate the ED50/GI50 using a linear regression formula. The log of the dose is used during the regression computation. If no dose yields a growth value under 50%, the results are expressed as: ED50>(highest dose). If no dose yields a growth value higher than 50%, then ED50<(lowest dose). Similar calculations are performed for the TGI at 0% growth, and at −50% growth for the LC50.

[4] = system: NCI 60-cell screen; test: NCI 60-cell screen; format: cell-based; details: read-out: mean-panel GI50
[5] = system: two fungal and eight bacterial strains; test: Antibiotic screening against the whole panel; format: cell-based; details: for inhibition of growth of the two fungal and eight bacterial strains tested: at 100 μg/disk
From the text: (§5) The new substances were screened against the bacteria Stenotrophomonas maltophilia, Micrococcus luteus, Staphylococcus aureus, Escherichia coli, Enterobacter cloacae, Enterococcus faecalis, Streptococcus pneumoniae, Neisseria gonorrhoeae, and the fungi Candida albicans and Cryptococcus neoformans, according to established disk susceptibility testing protocols.

[6] = system: SF-295; test: Human cancer cell growth inhibition, CNS SF-295; format: cell-based
Method: as §2, §3, §4

[7] = system: DU-145; test: Human cancer cell growth inhibition, prostate DU-145; format: cell-based
Method: as §2, §3, §4

[8] = system: P388; test: Cancer cell growth inhibition, murine P388 lymphocytic leukemia; format: cell-based
Method: as §2, §3, §4

[9] = system: BXPC-3; test: Human cancer cell growth inhibition, pancreas BXPC-3; format: cell-based; details: Pancreas-a
Method: as §2, §3, §4

[10] = system: NCI-H460; test: Human cancer cell growth inhibition, lung-NSC NCI-H460; format: cell-based
Method: as §2, §3, §4

[11] = system: RPMI-7951; test: Human cancer cell growth inhibition, melanoma RPMI-7951; format: cell-based
Method: as §2, §3, §4

[12] = system: Micrococcus luteus; test: Disk susceptibility testing, Micrococcus luteus; format: cell-based
From the text: as §5

[13] = Solubility in distilled water; format: physicochemical; details: distilled water at 25° C.
[14] = system: Neisseria gonorrhoeae; test: Disk susceptibility testing, Neisseria gonorrhoeae; format: cell-based
From the text: as §5

[15] = system: Staphylococcus aureus; test: Disk susceptibility testing, Staphylococcus aureus; format: cell-based
From the text: as §5

[16] = system: Stenotrophomonas maltophilia; test: Disk susceptibility testing, Stenotrophomonas maltophilia; format: cell-based
From the text: as §5

[17] = system: Escherichia coli; test: Disk susceptibility testing, Escherichia coli; format: cell-based
From the text: as §5

[18] = system: Cryptococcus neoformans; test: Disk susceptibility testing, Cryptococcus neoformans; format: cell-based
From the text: as §5

[19] = system: Candida albicans; test: Disk susceptibility testing, Candida albicans; format: cell-based
From the text: as §5

For `COc1ccc(/C=C\c2cc(OC)c(OC)c(OC)c2)c(O)c1O` [Compound 3a, combretastatin A-1, reference compound], the IC50 [1] was 1.1 ± 0.07 µM and the “% Inhibition of Colchicine Binding ± SD” value [2] was 99.6 ± 0.7%.

In the case of `COc1ccc(/C=C\c2cc(OC)c(OC)c(OC)c2)cc1OP(=O)(O)O` [Compound 3c], the IC50 [1] is reported as > 40 µM.

Work on `COc1ccc(C(=O)c2cc(OC)c(OC)c(OC)c2)c(O)c1O` [Compound 6a] yielded a GI50 ([3]; Homo sapiens, KM-20L2, read-out: GI50) of 1.2 µg/mL (≈ 3.59 µM), an IC50 [1] of 0.82 ± 0.2 µM and a GI50 ([4]; 60 cell) of 0.167 µM. For the same compound, the “% Inhibition of Colchicine Binding ± SD” value [2] was 77 ± 4%, the “inhibition of growth of the two fungal and eight bacterial strains tested” value [5] was “none of these compounds inhibited growth” and the GI50 ([6]; Homo sapiens, read-out: GI50) was 0.04 µg/mL (≈ 0.12 µM). For the same compound, the GI50 ([7]; Homo sapiens, read-out: GI50) was 0.048 µg/mL (≈ 0.144 µM), the GI50 ([8]; Mus musculus, read-out: GI50) was 0.315 µg/mL (≈ 0.942 µM) and the melting point was 171.1 to 171.9 °C. The GI50 ([9]; Homo sapiens, read-out: GI50) was 3.3 µg/mL (≈ 9.87 µM), the GI50 ([10]; Homo sapiens, read-out: GI50) was 0.21 µg/mL (≈ 0.628 µM) and the GI50 ([11]; Homo sapiens, read-out: GI50) was 0.58 µg/mL (≈ 1.73 µM).

In the case of `COCOc1c(OC)ccc(C(=O)c2cc(OC)c(OC)c(OC)c2)c1OCOC` [Compound 6c, 2′,3′-Bis(methoxymethyloxy)-3,4,4′,5-tetramethoxybenzophenone], the “inhibition of growth of the two fungal and eight bacterial strains tested” value [5] is reported as “none of these compounds inhibited growth”, the GI50 ([6]; Homo sapiens, read-out: GI50) is reported as > 10 µg/mL and the GI50 ([7]; Homo sapiens, read-out: GI50) is reported as > 10 µg/mL. The GI50 ([8]; Mus musculus, read-out: GI50) was > 10 µg/mL, the melting point was 70.2 to 71.7 °C and the GI50 ([9]; Homo sapiens, read-out: GI50) was > 10 µg/mL. For the same compound, the GI50 ([10]; Homo sapiens, read-out: GI50) was > 10 µg/mL and the GI50 ([11]; Homo sapiens, read-out: GI50) was > 10 µg/mL.

For `COc1cc(C(=O)c2ccc(OC)c(OP(=O)(OCc3ccccc3)OCc3ccccc3)c2OP(=O)(OCc2ccccc2)OCc2ccccc2)cc(OC)c1OC` [Compound 6d, 2′,3′-O-Di-(bisbenzylphosphoryl)-hydroxyphenstatin], the “Minimum inhibitory Concentration (μg/disk)” value [12] was 50-100 μg/disk, the GI50 [6] was >10 µg/mL and the GI50 [7] was >10 µg/mL. For the same compound, the GI50 [8] was 2.55 µg/mL (≈ 2.98 µM), the GI50 [9] was >10 µg/mL and the GI50 [10] was >10 µg/mL. The GI50 [11] was >10 µg/mL.

For `COc1cc(C(=O)c2ccc(OC)c(OP(=O)([O-])[O-])c2OP(=O)([O-])[O-])cc(OC)c1OC.[Na+].[Na+].[Na+].[Na+]` [Compound 6e, Sodium Hydroxyphenstatin Diphosphate], the GI50 [3] was 5.9 µg/mL, the IC50 [1] was > 40 µM and the GI50 ([4]; NCI 60-cell screen, mean of panel) was 0.167 µM. The “antifungal and/or antibacterial action” value [5] was “did not”, the GI50 [6] was 0.23 µg/mL and the GI50 [7] was 0.3 µg/mL. It also gave a GI50 [8] of 0.0336 µg/mL, a solubility [13] of 100 mg/mL and a GI50 [9] of 5.3 µg/mL. The GI50 [10] was 0.35 µg/mL.

Compound `COc1cc(C(=O)c2ccc(OC)c(OP(=O)([O-])[O-])c2OP(=O)([O-])[O-])cc(OC)c1OC.[Li+].[Li+].[Li+].[Li+]` [Compound 6f, Lithium Hydroxyphenstatin Diphosphate] has a solubility [13] of 25 mg/mL.

For `COc1cc(C(=O)c2ccc(OC)c(OP(=O)([O-])[O-])c2OP(=O)([O-])[O-])cc(OC)c1OC.[Ca+2].[Ca+2]` [Compound 6h, Calcium Hydroyphenstatin Diphosphate], the solubility [13] was < 1 mg/mL.

In the case of `COc1ccc(Br)c(O)c1O` [Compound 7a, 1-Bromo-2,3dihydroxy-4methoxy-benzene], the “Minimum inhibitory Concentration (μg/disk)” value [14] is reported as <6.25 μg/disk, the “Minimum inhibitory Concentration (μg/disk)” value [15] is reported as 25-50 μg/disk and the “Minimum inhibitory Concentration (μg/disk)” value [16] is reported as 25-50 μg/disk. For the same compound, the “Minimum inhibitory Concentration (μg/disk)” value [17] was 50-100 μg/disk and the melting point was 122.3 to 124.3 °C.

For `COc1ccc(Br)c(O[Si](C)(C)C(C)(C)C)c1O[Si](C)(C)C(C)(C)C` [Compound 7b, 1-Bromo-2,3-bis(tert-butyldimethylsilyl-oxy)-4-methoxy-benzene], the “inhibition of growth of the two fungal and eight bacterial strains tested” value [5] was “none of these compounds inhibited growth” and the melting point was 68.9 to 69.6 °C.

In the case of `COc1cc(C(=O)N2CCOCC2)cc(OC)c1OC` [Compound 8a, N-(3,4,5Trimethoxybenzoyl)-morpholine], the “inhibition of growth of the two fungal and eight bacterial strains tested” value [5] is reported as “none of these compounds inhibited growth”.

In the case of `COc1cccc(C=O)c1OC(C)=O` [Compound 10, 2-Acetoxy-3methoxy-benzaldehyde], the “Minimum inhibitory Concentration (μg/disk)” value [18] is reported as 25-50 μg/disk, the “Minimum inhibitory Concentration (μg/disk)” value [16] is reported as 50-100 μg/disk and the melting point is reported as 75.4 to 76.2 °C.

For `COc1ccc(Br)c(C=O)c1OC(C)=O` [Compound 11, 2-Acetoxy-3methoxy-6bromo-benzaldehyde], the “Minimum inhibitory Concentration (μg/disk)” value [14] was 25-50 μg/disk, the “Minimum inhibitory Concentration (μg/disk)” value [19] was 12.5-25 μg/disk and the “Minimum inhibitory Concentration (μg/disk)” value [18] was 6.25-12.5 μg/disk. For the same compound, the “Minimum inhibitory Concentration (μg/disk)” value [17] was 50-100 μg/disk and the melting point was 121.6 to 123.4 °C.

In the case of `COc1ccc(Br)c(C=O)c1O` [Compound 12, 2-Hydroxy-3-methoxy-6bromo-benzaldehyde], the “Minimum inhibitory Concentration (μg/disk)” value [14] is reported as 12.5-25 μg/disk, the “Minimum inhibitory Concentration (μg/disk)” value [19] is reported as 50-100 μg/disk and the “Minimum inhibitory Concentration (μg/disk)” value [18] is reported as 12.5-25 μg/disk.

With `COc1cc(C(=O)c2ccc(OC)c(OC)c2OC)cc(OC)c1OC` [Compound 13, 2′,3,3′,4,4′,5-Hexamethoxybenzophenone] the “inhibition of growth of the two fungal and eight bacterial strains tested” value [5] was “none of these compounds inhibited growth” and the melting point was 124.6 to 125.9 °C.

In the case of `COc1cc(C(O)c2ccc(OC)c(OC)c2OC)cc(OC)c1OC` (stereo not shown) [Compound 14, 2′,3,3′,4,4′,5Hexamethoxydiphenylcarbinol], the “inhibition of growth of the two fungal and eight bacterial strains tested” value [5] is reported as “none of these compounds inhibited growth”.

In the case of `COCOc1c(OC)ccc(C(O)c2cc(OC)c(OC)c(OC)c2)c1OCOC` (stereo not shown) [Compound 15, 2′,3′-Bis(methoxymethyloxy)-3,4,4′,5tetramethoxydiphenylcarbinol], the “inhibition of growth of the two fungal and eight bacterial strains tested” value [5] is reported as “none of these compounds inhibited growth” and the melting point is reported as 79.9 to 81.8 °C.
